Results taken from US20260317319A1, “NOVEL ERGOLINES AND METHODS OF TREATING MOOD DISORDERS” (Gilgamesh Pharma Inc., priority 2023, published 2026).
Like-named read-outs stand apart in the source and are kept apart here.

Experiments:
5-HT2B receptor = target: T1, 5-HT2B receptor (Homo sapiens, UniProt P41595); assay: cell-based; assay type: cell-based; conditions: for Emax: HEK293, agonist, Ca2+ flux, HEK293, max dose, read-out: 5-HT2B % Act @ Max Dose
T1 construct: expressed in transfected cells; host or cells: HEK293, stably transfected
Procedure, shortened: (§1)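 FLIPR Tetra fluorescence read-out of calcium flux after compound addition. Receptor-expressing stable lines were used (HEK293 for 2A/2B; CHO with Gα15 for 1A), dye-loaded with Fluo-4 Direct and 2.5 mM final probenecid, 50 min at 37 °C.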

5-HT2C receptor = target: T2, 5-HT2C receptor (Homo sapiens, UniProt P28335); assay: cell-based; conditions: read-out: 5-HT2C % Act @ Max Dose
T2 sequence (P28335 33-458): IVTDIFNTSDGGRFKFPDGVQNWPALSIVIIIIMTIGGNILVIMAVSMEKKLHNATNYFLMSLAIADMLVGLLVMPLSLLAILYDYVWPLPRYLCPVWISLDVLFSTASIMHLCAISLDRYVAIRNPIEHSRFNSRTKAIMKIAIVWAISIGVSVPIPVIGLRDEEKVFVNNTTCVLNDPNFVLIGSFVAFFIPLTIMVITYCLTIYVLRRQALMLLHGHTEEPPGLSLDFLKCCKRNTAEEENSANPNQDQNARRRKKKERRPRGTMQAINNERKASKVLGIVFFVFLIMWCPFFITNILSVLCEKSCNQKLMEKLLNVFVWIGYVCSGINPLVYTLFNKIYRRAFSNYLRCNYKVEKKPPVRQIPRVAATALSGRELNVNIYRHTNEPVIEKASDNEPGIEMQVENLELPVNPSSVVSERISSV

5-HT1A receptor = target: T3, 5-HT1A receptor (Homo sapiens, UniProt P08908); assay: cell-based; conditions: CHO, agonist, Ca2+ flux, CHO cells with Gα15, max dose; read-out: 5-HT1A % Act @ Max Dose
T3 construct: expressed in transfected cells; host or cells: CHO cells, stably transfected
T3 sequence (P08908 1-422): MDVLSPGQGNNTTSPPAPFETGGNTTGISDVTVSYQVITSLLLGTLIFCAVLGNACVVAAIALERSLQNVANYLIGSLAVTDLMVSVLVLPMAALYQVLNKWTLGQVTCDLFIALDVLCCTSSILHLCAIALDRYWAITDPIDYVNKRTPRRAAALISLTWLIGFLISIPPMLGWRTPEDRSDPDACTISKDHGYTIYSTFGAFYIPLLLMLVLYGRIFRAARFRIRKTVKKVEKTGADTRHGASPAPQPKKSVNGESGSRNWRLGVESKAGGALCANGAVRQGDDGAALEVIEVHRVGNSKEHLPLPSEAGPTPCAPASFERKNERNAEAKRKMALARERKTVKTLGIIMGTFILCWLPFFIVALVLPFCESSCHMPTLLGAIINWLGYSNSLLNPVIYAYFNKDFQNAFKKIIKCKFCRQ
Procedure, shortened: as §1

5-HT2A receptor [1] = target: T4, 5-HT2A receptor (Homo sapiens, UniProt P28223); assay: cell-based; assay type: cell-based; conditions: beta-arrestin recruitment; for Emax: read-out: 5-HT2A Arrestin % Act @ Max Dose
Procedure, shortened: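 Agonist activity expressed as percent of maximal control ligand signal after vehicle subtraction, from chemiluminescence (RLU). Cells carry ProLink-tagged 5-HT2A plus β-arrestin fused to β-gal deletion mutant; ligand-driven arrestin binding restores β-galactosidase activity (PathHunter). Cells pre-incubated at 37° C.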

C57BL/6 mice = assay: Mouse head twitch response (HTR) assay (observer-counted); assay type: in vivo; conditions: SC
Description: Agonists of the 5-HT2A receptor are well known to induce this effect in rodents and the potency of this HTR is correlated with hallucinogenic potency in humans.
Animals. Adult male C57BL/6 mice, aged 6-8 weeks (body weight 20-25 g) were used in this experiment. Animals were housed under controlled temperatures and 12-hour light/dark cycles (lights on between 07:00-19:00 h), with ad libitum food and water. This study was carried out in strict accordance with the requirements of the Committee for the Purpose of Control and Supervision of Experiments on Animals (CPCSEA), India. All efforts were made to minimize suffering.
Procedure. Mice were administered one dose of the drug and immediately placed into a small open field for behavioral observation. Animals were observed continuously for 20 mins and the number of head twitches (HTs) were counted by an observer blind to the treatment condition.
Statistical Analysis. The data points shown are the mean±standard error of the mean (SEM). Analysis was performed using GraphPad Prism 6. Curves were fit using a non-linear gaussian distribution to calculate ED50 and Emax values.
Additional disclosed compounds were tested in the mouse head twitch response (HTR) assay according to the procedure described in Example 57 (administered SC). […] Lastly, compounds with much larger benzyl and phenethyl substituents on the amine nitrogen (e.g., 10 and 11) were low efficacy in this assay, consistent with their bias toward arrestin signaling (see Example 55).

in vitro [2] = assay type: in vitro ADME, human
in vitro [3] = assay type: in vitro ADME, mouse
Excerpt: MLM Stability Pooled MLM from male CD-1 mice (BIOIVT M00501) were used.

in vitro [4] = assay type: in vitro ADME, rat
Excerpt: RLM Stability Pooled RLM from male Sprague-Dawley rats (Xenotech R1000) were used.

5-HT2A receptor [5] = target: T4, 5-HT2A receptor; assay: cell-based; assay type: cell-based; design: expressed in transfected cells; host or cells: HEK293, stably transfected; conditions: HEK293, agonist, Ca2+ flux, HEK293, max dose; read-out: 5-HT2A % Act @ Max Dose
Procedure, shortened: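 Stable HEK293 (5-HT2A, 5-HT2B) or CHO/Gα15 (5-HT1A) cells; Fluo-4 Direct, probenecid 2.5 mM final; 50 min dye load, 37 °C, 5% CO2; agonist-mode Ca2+ flux, FLIPR Tetra.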

[6] = agonist, Ca2+ flux, Eurofins DiscoverX protocol, max dose
[7] = HLM 0.50 mg/mL, NADPH 1 mM, 1 μM compound, pH 7.4, 37° C., 60 min
[8] = MLM (male CD-1) 0.50 mg/mL, NADPH 1 mM, 1 μM compound, pH 7.4, 37° C., 60 min
[9] = RLM (male Sprague-Dawley) 0.50 mg/mL, NADPH 1 mM, 1 μM compound, pH 7.4, 37° C., 60 min

T4 sequence (P28223 whole entry, the tested form may be a part): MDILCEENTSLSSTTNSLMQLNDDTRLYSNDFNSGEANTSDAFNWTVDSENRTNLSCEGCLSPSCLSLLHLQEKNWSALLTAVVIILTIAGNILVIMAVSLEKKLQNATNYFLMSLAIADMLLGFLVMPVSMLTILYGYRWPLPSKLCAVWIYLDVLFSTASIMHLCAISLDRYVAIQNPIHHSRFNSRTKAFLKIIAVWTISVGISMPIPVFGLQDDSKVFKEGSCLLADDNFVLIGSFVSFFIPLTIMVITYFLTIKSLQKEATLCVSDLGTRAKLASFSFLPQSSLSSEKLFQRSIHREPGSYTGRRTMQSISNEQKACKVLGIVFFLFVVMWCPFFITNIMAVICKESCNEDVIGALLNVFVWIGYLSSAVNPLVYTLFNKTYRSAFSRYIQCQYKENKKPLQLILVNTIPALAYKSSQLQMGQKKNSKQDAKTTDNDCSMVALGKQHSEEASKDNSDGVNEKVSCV
T1 sequence (P41595 whole entry): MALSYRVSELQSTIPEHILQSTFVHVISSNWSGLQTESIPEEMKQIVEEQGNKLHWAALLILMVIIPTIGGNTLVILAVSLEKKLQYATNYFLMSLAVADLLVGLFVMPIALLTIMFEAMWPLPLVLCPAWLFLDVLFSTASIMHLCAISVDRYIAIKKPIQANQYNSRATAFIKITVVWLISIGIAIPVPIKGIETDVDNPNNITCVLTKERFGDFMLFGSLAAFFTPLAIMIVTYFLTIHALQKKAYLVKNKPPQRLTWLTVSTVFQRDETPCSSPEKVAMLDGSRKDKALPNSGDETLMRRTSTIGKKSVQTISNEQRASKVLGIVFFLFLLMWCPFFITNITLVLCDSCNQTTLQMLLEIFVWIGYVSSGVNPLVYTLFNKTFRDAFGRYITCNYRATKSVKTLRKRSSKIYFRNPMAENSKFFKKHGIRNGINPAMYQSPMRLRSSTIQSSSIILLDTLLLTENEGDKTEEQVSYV

Structure (SMILES) | Emax (5-HT2B receptor) [%] | Emax (5-HT2C receptor) [%] | Emax (5-HT1A receptor) [%] | Emax (5-HT2A receptor [1]; agonist, max dose) [%] | 5-HT2A arrestin agonist class (5-HT2A receptor [1]) | HTR at most efficacious dose (bound) (C57BL/6 mice; 20 min) [HTR] | half-life (t1/2) (in vitro [2]; human, microsomes, pH 7.4) [min] | half-life (t1/2) (in vitro [3]; mouse, microsomes, pH 7.4) [min] | half-life (t1/2) (in vitro [4]; rat, microsomes, pH 7.4) [min] | Emax (5-HT2A receptor [5]) [%] | Emax (5-HT2C receptor; [6]) [%] | stability in HLM (in vitro [2]) | half-life (t1/2) (in vitro [2]; [7]) [min] | stability in MLM (in vitro [3]) | half-life (t1/2) (in vitro [3]; [8]) [min] | stability in RLM (in vitro [4]) | half-life (t1/2) (in vitro [4]; [9]) [min] | also measured
CCC[C@@H](C)NC(=O)[C@@H]1C=C2c3cccc4[nH]cc(c34)C[C@H]2N(C)C1 [Int17] | 25.5 | 102 | 113 | 38.8 | partial agonists | < 15 | 15.865 | 8.252 | 27.894 | 91.5 |  |  |  |  |  |  |  | # HTR/20 min at Most Efficacious Dose (C57BL/6 mice; most efficacious dose 0.32 mg/kg): 6.0 HTR/20 min
CCC[C@@H](C)NC(=O)[C@@H]1C=C2c3cccc4[nH]cc(c34)C[C@H]2N(CCC)C1 [Compound 7, (6aR,9R)—N—((R)-pentan-2-yl)-7-propyl-4,6,6a,7,8,9-hexahydroindolo[4,3-fg]quinoline-9-carboxamide] | 94.8 |  | 107 | 110 | full agonists | > 15 |  |  |  | 94.5 | 115 | much lower stability (higher clearance) | 1.65 | much lower stability (higher clearance) | 0.541 | much lower stability (higher clearance) | 1.612 | selectivity for 5-HT2A over 5-HT2B (5-HT2B receptor; functional, compared to closest N-methyl counterparts Int8, Int11, Int17): more selective for 5-HT2A over 5-HT2B
C[C@H]1C[C@H](C)N1C(=O)[C@@H]1C=C2c3cccc4[nH]cc(c34)C[C@H]2N(C)C1 [Int11] |  |  |  |  | partial agonists |  |  |  |  |  |  |  | 25.7 |  | 13.9 |  | 54.9 | 5-HT2A Arrestin % Act @ Max Dose (5-HT2A receptor [1]; agonist, max dose): 49.27%; 5-HT2A arrestin Emax (bound) (5-HT2A receptor [1]; partial agonists): < 60%; ED50 (HTR) (C57BL/6 mice; 20 min, curve fit poor in some cases): 0.0154 mg/kg; Emax, HTR/20 min (C57BL/6 mice; curve fit poor in some cases): 10.93 HTR/20 min; efficacy in HTR assay (C57BL/6 mice; maximal effect): lower efficacy than analogous compounds bearing other amide substituents; # HTR/20 min at Most Efficacious Dose (C57BL/6 mice; most efficacious dose 0.1 mg/kg): 10.667 HTR/20 min; Intrinsic clearance (Clint) (in vitro [2]; [7]): 53.9 µL/min/mg; Intrinsic clearance (Clint) (in vitro [3]; [8]): 100 µL/min/mg; Intrinsic clearance (Clint) (in vitro [4]; [9]): 25.3 µL/min/mg
CCC(CC)NC(=O)[C@@H]1C=C2c3cccc4[nH]cc(c34)C[C@H]2N(C)C1 [Int14] | 9.84 | 99.1 | 102 | 44.4 | partial agonists | < 15 | 17.593 | 6.07 | 37.988 | 93.3 |  |  |  |  |  |  |  | 
CC[C@@H](C)NC(=O)[C@@H]1C=C2c3cccc4[nH]cc(c34)C[C@H]2N(CC)C1 [Compound 5, (6aR,9R)—N—((R)-sec-butyl)-7-ethyl-4,6,6a,7,8,9-hexahydroindolo[4,3-fg]quinoline-9-carboxamide] | 84.8 |  | 108 | 106 | full agonists | > 15 |  |  |  | 103 | 114 | much lower stability (higher clearance) |  | much lower stability (higher clearance) |  | much lower stability (higher clearance) |  | 
